# Laboratory results published in patent publication US9834550B2, “Pyridopyrimidinone compounds for modulating the catalytic activity of histone lysine demethylases (KDMs)” (Dong-A Socio Holdings Co., Ltd., priority 2014, dated 2017).
# Molecular target: T1, Recombinant human JARID1B/KDM5B (Homo sapiens, UniProt Q9UGL1)
# T1 construct: purchased Active Motif 31432; host or cells: Sf9 insect cells
# Assay: LANCE Ultra TR-FRET demethylase assay with FLAG-tagged JARID1B
# Type: biochemical
# Settings: 100 nM compound; 500 nM biotinylated H3K4me3 peptide substrate
# In short: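 Sf9-expressed N-FLAG full-length JARID1B (10–30 nM) preincubated 5 min with compound at 20, 1 or 0.1 uM (1% DMSO), then 500 nM biotin-H3K4me3 peptide, 500 uM 2-OG, 25 uM Fe(II), 2 mM ascorbate added; 30 min at room temperature in Hepes pH 7.5. H3K4me2/1 product read by TR-FRET 665/590 ratio.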
# T1 sequence (Q9UGL1 whole entry): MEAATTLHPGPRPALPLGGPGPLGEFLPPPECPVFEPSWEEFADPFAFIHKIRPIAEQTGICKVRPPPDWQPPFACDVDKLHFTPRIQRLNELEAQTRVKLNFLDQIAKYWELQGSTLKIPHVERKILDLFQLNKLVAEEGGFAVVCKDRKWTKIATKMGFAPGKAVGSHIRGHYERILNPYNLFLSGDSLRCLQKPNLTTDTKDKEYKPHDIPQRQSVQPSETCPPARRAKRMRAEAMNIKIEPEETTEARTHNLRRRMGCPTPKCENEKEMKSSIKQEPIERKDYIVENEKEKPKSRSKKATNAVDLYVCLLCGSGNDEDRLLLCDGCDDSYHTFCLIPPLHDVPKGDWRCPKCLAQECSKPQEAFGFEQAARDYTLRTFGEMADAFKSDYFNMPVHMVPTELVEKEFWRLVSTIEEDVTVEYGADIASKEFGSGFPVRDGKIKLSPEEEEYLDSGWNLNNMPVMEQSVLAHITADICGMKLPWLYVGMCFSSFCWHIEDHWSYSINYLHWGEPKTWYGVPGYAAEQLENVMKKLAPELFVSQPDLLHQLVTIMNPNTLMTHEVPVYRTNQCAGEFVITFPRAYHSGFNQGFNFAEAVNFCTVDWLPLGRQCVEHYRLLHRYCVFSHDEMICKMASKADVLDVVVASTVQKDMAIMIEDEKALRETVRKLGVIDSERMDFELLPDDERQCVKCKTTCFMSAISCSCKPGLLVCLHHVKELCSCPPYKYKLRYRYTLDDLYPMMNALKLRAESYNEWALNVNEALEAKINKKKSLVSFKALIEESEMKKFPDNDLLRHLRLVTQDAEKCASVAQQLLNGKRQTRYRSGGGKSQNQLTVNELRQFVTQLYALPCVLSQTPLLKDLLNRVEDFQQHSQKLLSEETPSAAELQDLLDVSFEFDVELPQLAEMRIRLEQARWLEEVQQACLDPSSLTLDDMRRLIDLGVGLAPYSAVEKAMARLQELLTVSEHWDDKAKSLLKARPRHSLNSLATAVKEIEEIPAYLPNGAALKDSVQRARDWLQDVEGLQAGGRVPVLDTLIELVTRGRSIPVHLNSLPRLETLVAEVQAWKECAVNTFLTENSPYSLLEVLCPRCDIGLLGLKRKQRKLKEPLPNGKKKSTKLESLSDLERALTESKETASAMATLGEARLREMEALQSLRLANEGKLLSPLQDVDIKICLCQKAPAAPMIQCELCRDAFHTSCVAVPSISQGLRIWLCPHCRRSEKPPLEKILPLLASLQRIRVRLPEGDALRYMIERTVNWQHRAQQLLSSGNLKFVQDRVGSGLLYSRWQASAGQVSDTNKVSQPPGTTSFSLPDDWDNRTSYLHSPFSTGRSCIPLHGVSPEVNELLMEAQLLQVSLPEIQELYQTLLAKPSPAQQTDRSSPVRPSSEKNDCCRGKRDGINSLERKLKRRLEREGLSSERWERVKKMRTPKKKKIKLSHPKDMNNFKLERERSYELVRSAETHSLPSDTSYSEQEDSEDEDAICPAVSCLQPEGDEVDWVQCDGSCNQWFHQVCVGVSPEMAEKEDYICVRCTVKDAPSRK
row,inhibition at 0.1 µM,Compound
1,20 to 50%,"O=c1[nH]c(COc2ccc(F)c(Cl)c2)nc2c(CNCc3ccco3)nccc12 [Example 171, 2-((3-chloro-4-fluorophenoxy)methyl)-8-(((furan-2-ylmethyl)amino)methyl)pyrido[3,4-d]pyrimidin-4(3H)-one]"
2,> 50%,"O=c1[nH]c(COc2ccc(F)c(Cl)c2)nc2c(CNCc3cccnc3)nccc12 [Example 172, 2-((3-chloro-4-fluorophenoxy)methyl)-8-(((pyridin-3-ylmethyl)amino)methyl)pyrido[3,4-d]pyrimidin-4(3H)-one]"
3,20 to 50%,"O=c1[nH]c(COc2ccc(F)c(Cl)c2)nc2c(CNCc3ccncc3)nccc12 [Example 173, 2-((3-chloro-4-fluorophenoxy)methyl)-8-(((pyridin-4-ylmethyl)amino)methyl)pyrido[3,4-d]pyrimidin-4(3H)-one]"
4,20 to 50%,"CN(C)C(=O)c1ccc(CNCc2nccc3c(=O)[nH]c(COc4ccc(F)c(Cl)c4)nc23)o1 [Example 174, 5-((((2-((3-chloro-4-fluorophenoxy)methyl)-4-oxo-3,4-dihydropyrido[3,4-d]pyrimidin-8-yl)methyl)amino)methyl)-N,N-dimethylfuran-2-carboxamide]"
5,20 to 50%,"Cc1nccn1CCNCc1nccc2c(=O)[nH]c(COc3ccc(F)c(Cl)c3)nc12 [Example 175, 2-((3-chloro-4-fluorophenoxy)methyl)-8-(((2-(2-methyl-1H-imidazol-1-yl)ethyl)amino)methyl)pyrido[3,4-d]pyrimidin-4(3H)-one]"
6,20 to 50%,"O=c1[nH]c(COc2ccc(F)c(Cl)c2)nc2c(CNCCc3cccs3)nccc12 [Example 176, 2-((3-chloro-4-fluorophenoxy)methyl)-8-(((2-(thiophen-2-yl)ethyl)amino)methyl)pyrido[3,4-d]pyrimidin-4(3H)-one]"
7,20 to 50%,"Cc1cc(CNCc2nccc3c(=O)[nH]c(COc4ccc(F)c(Cl)c4)nc23)on1 [Example 177, 2-((3-chloro-4-fluorophenoxy)methyl)-8-((((3-methylisoxazol-5-yl)methyl)amino)methyl)pyrido[3,4-d]pyrimidin-4(3H)-one]"
8,20 to 50%,"CN1CCOC(CNCc2nccc3c(=O)[nH]c(COc4ccc(F)c(Cl)c4)nc23)C1 (stereo not drawn) [Example 178, 2-((3-chloro-4-fluorophenoxy)methyl)-8-((((4-methylmorpholin-2-yl)methyl)amino)methyl)pyrido[3,4-d]pyrimidin-4(3H)-one]"
9,20 to 50%,"O=c1[nH]c(COc2ccc(F)c(Cl)c2)nc2c(CNCc3ncco3)nccc12 [Example 179, 2-((3-chloro-4-fluorophenoxy)methyl)-8-(((oxazol-2-ylmethyl)amino)methyl)pyrido[3,4-d]pyrimidin-4(3H)-one]"
10,20 to 50%,"O=c1[nH]c(COc2ccc(F)c(Cl)c2)nc2c(CNCc3ncccn3)nccc12 [Example 180, 2-((3-chloro-4-fluorophenoxy)methyl)-8-(((pyrimidin-2-ylmethyl)amino)methyl)pyrido[3,4-d]pyrimidin-4(3H)-one]"
11,20 to 50%,"O=c1[nH]c(COc2ccc(F)c(Cl)c2)nc2c(CNCc3cccs3)nccc12 [Example 181, 2-((3-chloro-4-fluorophenoxy)methyl)-8-(((thiophen-2-ylmethyl)amino)methyl)pyrido[3,4-d]pyrimidin-4(3H)-one]"
12,20 to 50%,"O=c1[nH]c(COc2ccc(F)c(Cl)c2)nc2c(CNCc3ccnc(Cl)c3)nccc12 [Example 182, 2-((3-chloro-4-fluorophenoxy)methyl)-8-((((2-chloropyridin-4-yl)methyl)amino)methyl)pyrido[3,4-d]pyrimidin-4(3H)-one]"
13,< 20%,"Cc1cc(C)n(CCNCc2nccc3c(=O)[nH]c(COc4ccc(F)c(Cl)c4)nc23)n1 [Example 183, 2-((3-chloro-4-fluorophenoxy)methyl)-8-(((2-(3,5-dimethyl-1H-pyrazol-1-yl)ethyl)amino)methyl)pyrido[3,4-d]pyrimidin-4(3H)-one]"
14,< 20%,"Cc1cccc(CCNCc2nccc3c(=O)[nH]c(COc4ccc(F)c(Cl)c4)nc23)n1 [Example 184, 2-((3-chloro-4-fluorophenoxy)methyl)-8-(((2-(6-methylpyridin-2-yl)ethyl)amino)methyl)pyrido[3,4-d]pyrimidin-4(3H)-one]"
15,20 to 50%,"O=C1c2cccnc2CN1CCCNCc1nccc2c(=O)[nH]c(COc3ccc(F)c(Cl)c3)nc12 [Example 185, 2-((3-chloro-4-fluorophenoxy)methyl)-8-(((3-(5-oxo-5,7-dihydro-6H-pyrrolo[3,4-b]pyridin-6-yl)propyl)amino)methyl)pyrido[3,4-d]pyrimidin-4(3H)-one]"
16,20 to 50%,"O=c1[nH]c(COc2ccc(F)c(Cl)c2)nc2c(CNCCc3ccccn3)nccc12 [Example 186, 2-((3-chloro-4-fluorophenoxy)methyl)-8-(((2-(pyridin-2-yl)ethyl)amino)methyl)pyrido[3,4-d]pyrimidin-4(3H)-one]"
17,> 50%,"O=c1[nH]c(COc2ccc(F)c(Cl)c2)nc2c(CNC[C@@H]3CNCCO3)nccc12 [Example 187, (R)-2-((3-chloro-4-fluorophenoxy)methyl)-8-(((morpholin-2-ylmethyl)amino)methyl)pyrido[3,4-d]pyrimidin-4(3H)-one]"

row,inhibition at 0.1 µM,Compound
1,> 50%,"O=c1[nH]c(COc2ccc(F)c(Cl)c2)nc2c(CNCC3CCN(CCO)CC3)nccc12 [Example 188, 2-((3-chloro-4-fluorophenoxy)methyl)-8-((((1-(2-hydroxyethyl)piperidin-4-yl)methyl)amino)methyl)pyrido[3,4-d]pyrimidin-4(3H)-one]"
2,> 50%,"COCCN1CCC(CNCc2nccc3c(=O)[nH]c(COc4ccc(F)c(Cl)c4)nc23)CC1 [Example 189, 2-((3-chloro-4-fluorophenoxy)methyl)-8-((((1-(2-methoxyethyl)piperidin-4-yl)methyl)amino)methyl)pyrido[3,4-d]pyrimidin-4(3H)-one]"
3,> 50%,"O=c1[nH]c(COc2ccc(F)c(Cl)c2)nc2c(CNC[C@H]3CNCCO3)nccc12 [Example 190, (S)-2-((3-chloro-4-fluorophenoxy)methyl)-8-(((morpholin-2-ylmethyl)amino)methyl)pyrido[3,4-d]pyrimidin-4(3H)-one]"
4,< 20%,"O=c1[nH]c(C2CCCC2)nc2c(CNCC3CCNCC3)nccc12 [Example 191, 2-cyclopentyl-8-(((piperidin-4-ylmethyl)amino)methyl)pyrido[3,4-d]pyrimidin-4(3H)-one]"
5,< 20%,"CN1CCC(CNCc2nccc3c(=O)[nH]c(C4CCCC4)nc23)CC1 [Example 192, 2-cyclopentyl-8-((((1-methylpiperidin-4-yl)methyl)amino)methyl)pyrido[3,4-d]pyrimidin-4(3H)-one]"
6,< 20%,"O=c1[nH]c(C2CCCO2)nc2c(CNCC3CCNCC3)nccc12 (stereo not drawn) [Example 193, 8-(((piperidin-4-ylmethyl)amino)methyl)-2-(tetrahydrofuran-2-yl)pyrido[3,4-d]pyrimidin-4(3H)-one]"
7,< 20%,"CN1CCC(CNCc2nccc3c(=O)[nH]c(C4CCCO4)nc23)CC1 (stereo not drawn) [Example 194, 8-((((1-methylpiperidin-4-yl)methyl)amino)methyl)-2-(tetrahydrofuran-2-yl)pyrido[3,4-d]pyrimidin-4(3H)-one]"
8,< 20%,"O=c1[nH]c(C2CCOC2)nc2c(CNCC3CCNCC3)nccc12 (stereo not drawn) [Example 195, 8-(((piperidin-4-ylmethyl)amino)methyl)-2-(tetrahydrofuran-3-yl)pyrido[3,4-d]pyrimidin-4(3H)-one]"
9,< 20%,"CN1CCC(CNCc2nccc3c(=O)[nH]c(C4CCOC4)nc23)CC1 (stereo not drawn) [Example 196, 8-((((1-methylpiperidin-4-yl)methyl)amino)methyl)-2-(tetrahydrofuran-3-yl)pyrido[3,4-d]pyrimidin-4(3H)-one]"
10,20 to 50%,"O=c1[nH]c(C2Cc3ccccc3O2)nc2c(CNCC3CCNCC3)nccc12 (stereo not drawn) [Example 197, 2-(2,3-dihydrobenzofuran-2-yl)-8-(((piperidin-4-ylmethyl)amino)methyl)pyrido[3,4-d]pyrimidin-4(3H)-one]"
11,20 to 50%,"CN1CCC(CNCc2nccc3c(=O)[nH]c(C4Cc5ccccc5O4)nc23)CC1 (stereo not drawn) [Example 198, 2-(2,3-dihydrobenzofuran-2-yl)-8-((((1-methylpiperidin-4-yl)methyl)amino)methyl)pyrido[3,4-d]pyrimidin-4(3H)-one]"
12,< 20%,"O=c1[nH]c(C2CCc3ccccc3O2)nc2c(CNCC3CCNCC3)nccc12 (stereo not drawn) [Example 199, 2-(chroman-2-yl)-8-(((piperidin-4-ylmethyl)amino)methyl)pyrido[3,4-d]pyrimidin-4(3H)-one]"
13,20 to 50%,"CN1CCC(CNCc2nccc3c(=O)[nH]c(C4CCc5ccccc5O4)nc23)CC1 (stereo not drawn) [Example 200, 2-(chroman-2-yl)-8-((((1-methylpiperidin-4-yl)methyl)amino)methyl)pyrido[3,4-d]pyrimidin-4(3H)-one]"
14,< 20%,"CN1CCC(CNCc2nccc3c(=O)[nH]c(C4Cc5ccccc5C4)nc23)CC1 [Example 201, 2-(2,3-dihydro-1H-inden-2-yl)-8-((((1-methylpiperidin-4-yl)methyl)amino)methyl)pyrido[3,4-d]pyrimidin-4(3H)-one]"
15,20 to 50%,"O=c1[nH]c(COCc2ccccc2)nc2c(CNCC3CCNCC3)nccc12 [Example 202, 2-((benzyloxy)methyl)-8-(((piperidin-4-ylmethyl)amino)methyl)pyrido[3,4-d]pyrimidin-4(3H)-one]"
16,> 50%,"CN1CCC(CNCc2nccc3c(=O)[nH]c(COCc4ccccc4)nc23)CC1 [Example 203, 2-((benzyloxy)methyl)-8-((((1-methylpiperidin-4-yl)methyl)amino)methyl)pyrido[3,4-d]pyrimidin-4(3H)-one]"
